Laboratory results: publication PMC12834051, “Improved synthesis and physicochemical characterization of the selective serotonin 2A receptor agonist 25CN-NBOH” (Beilstein Journal of Organic Chemistry, 2026)
In brackets after ≈: the same amount, converted by molar mass. Several values for one entry are separate records, joined by “and”; a condition that tells them apart may be missing. Equal values may be shown once. Entries after “also recorded” stand apart in the source; their conditions may differ. Where a name gives a salt, the structure may show the parent alone. Read-outs that look alike come from different tables or passages of the source.

How the values were obtained:
[1] = Apparent pKa by spectrophotometric titration (inForm, Sirius); assay type: physicochemical; conditions: for pKa: concentration-based, 30.8 °C, I = 0.172 M
Procedure: The molar absorption coefficients and apparent pKa values of 1 were determined by spectrophotometry using an inForm instrument from Sirius Analytical (Forest Row, UK). Molar absorption coefficients (absorbance), as a function of the wavelength (185–750 nm) and pH in the interval 2.0–12.0, were determined at 30.8 °C. A stock solution (5.0 mM) of 1·HCl in N-methyl-2-pyrrolidone (NMP) was added to 36 mL of an ionic strength-adjusted buffer solution (I = 0.172 M) containing acetate, phosphate, and sodium chloride while stirring at 300 rpm. The concentration of 1 during measurements ranged from 13–27 µM (three experiments each with three titrations were performed). Potentiometric titrations from high to low pH and low to high pH were performed by addition of 0.50 M HCl and 0.50 M NaOH, respectively, while UV–vis spectra were recorded using the fiber optic probe (10 mm light path) of the inForm diode array spectrometer. The instrument control and data analysis were performed using the inForm software Version 1.1.3.6 (Sirius Analytical, Forest Row, UK).

[2] = buffer at pH 7.4; cited from earlier work
MDCK = MDCK assay, cited from earlier work
[3] = Octanol/buffer distribution coefficient (logD); assay type: physicochemical; conditions: 25 °C
Procedure: The pH-dependent octanol/buffer distribution coefficients of 1 were determined at 25 ± 0.5 °C using the following buffers: 50 mM sodium citrate (pH 5.00, I = 0.15 M), 67 mM sodium phosphate (pH 7.40, I = 0.18 M), and 50 mM sodium carbonate (pH 9.50, I = 0.15 M). The ionic strength of the buffers was adjusted by adding a calculated amount of potassium chloride. The octanol phases were saturated with the appropriate buffer solution, and vice versa, before the start of the experiment. Solutions of 2, 0.5, and 0.1 mg/mL of the drug in the buffer solutions at pH 5.00, 7.40, and 9.50, respectively, were prepared. The organic phase was hereafter added to the buffer solution in a ratio of 1:9 at pH 5.00 and 7.40 and 1:19 at pH 9.50. The samples were rotated for 24 h in a temperature-controlled incubator at 25 °C. The concentration of 1 in the buffer solution before and after partitioning, ci and cw, respectively, was determined by HPLC, from which distribution coefficients, D, were calculated according to
where Vw and Vo are the volume of the buffer solution and organic phase, respectively. Each experiment was conducted in triplicate.
(§1) Samples from distribution coefficient and stability experiments were analyzed using an Agilent 1260 Infinity system (Agilent Technologies, Santa Clara, CA, USA) equipped with a column oven (Mikrolab Aarhus, Højbjerg, Denmark) and an Agilent 1100 series system (Agilent Technologies), respectively. Reversed-phase chromatography was performed using a Gemini C18 column (150 × 4.60 mm, 5 µm) with a Gemini C18 precolumn (4 × 3.00 mm, Phenomenex, Torrance, CA, USA). Detection was performed at 241 nm, the column temperature was 30 °C, the injection volume was 10 µL, and the flow rate was 1 mL/min. The mobile phase consisted of acetonitrile and 0.1% phosphoric acid in the ratios 35:65 and 25:75, v/v for the distribution coefficient and stability experiments, respectively. The ChemStation software (Version B.04.03, Agilent Technologies) was used for instrument control and data collection.

[4] = in vivo, rodents; maximal brain exposure rapidly attained; cited from earlier work
[5] = Stability in solution (HPLC peak areas); assay type: physicochemical
Procedure: The stability of 1 was determined in 67 mM sodium phosphate buffer (pH 7.40, I = 0.18 M) and water at 25 ± 0.5 °C. The solutions comprising 0.2 mg/mL of 1·HCl were kept in a temperature-controlled incubator, and samples were measured by HPLC immediately after sample preparation as well as after one and four weeks for the experiments in phosphate buffer and after four weeks for experiments in ultrapure water. The stability of 1 was assessed based on peak areas. The experiment was performed in triplicate.
as §1

[6] = Thermodynamic solubility in ultrapure water; assay type: physicochemical
Procedure: The solubility of 1·HCl in water was determined at 25 ± 0.5 °C by adding 30 mg to ultrapure water (3 mL) in screw-capped glass vials, giving a suspension where a solid precipitate could be observed at all timepoints. The samples were ultrasonicated for 3 min before being rotated in a temperature-controlled Incubator Hood TH 30 (Edmund Bühler, Bodelshausen, Germany). Sample aliquots of 600 µL were withdrawn after 30, 48, and 74 h and transferred to Eppendorf tubes. The samples were centrifuged at 19,000g for 15 min using a MiniSpin Plus (Eppendorf, Hamburg, Germany) and the supernatant filtered through a 0.45 µm PVDF filter (Ø = 4 mm, Phenomenex) with the first 400 µL being discarded. Samples were diluted with ultrapure water before measurement by a UV spectrophotometry at 241 nm using 10 mm micro quartz cuvettes (Hellma GmbH & Co. KG, Müllheim, Germany) and a Cary 60 UV–vis spectrophotometer (Agilent Technologies). Cary WinUV Simple Reads Application (Version 5.0.0, Agilent Technologies) was used for instrument control and data collection. The experiment was performed in triplicate.

[7] = pH 7.4, calculated species distribution

Row | Structure (SMILES) | pKa ([1]; read-out: apparent pKa (phenol)) | pKa ([1]; read-out: apparent pKa (protonated amine)) | fraction present in the protonated form ([1]; pH 6.24, saturated solution of 1·HCl in ultrapure water) [%] | fraction present as the neutral species [1, 7] [%] | fraction present in the protonated form [1, 7] | fraction present as the neutral species ([1]; pH 9.5, calculated species distribution) [%] | solubility in buffer [2] [µg/mL] | permeability apical–basal (MDCK; apical–basal) [×10⁻⁶ cm/s] | permeability basal–apical (MDCK; basal–apical) [×10⁻⁶ cm/s] | logD at 24 h ([3]; pH 5.00, octanol/50 mM sodium citrate) | logD at 24 h ([3]; pH 7.4, pH 7.40, octanol/67 mM sodium phosphate) | logD at 24 h ([3]; pH 9.5, pH 9.50, octanol/50 mM sodium carbonate) | BBB permeability [4] | stability in solution in phosphate buffer ([5]; phosphate buffer pH 7.4, 25 °C, 4 weeks) | stability in water ([5]; water, 25 °C, 4 weeks (1 month)) | pH of saturated solution in water ([6]; saturated solution of 1·HCl in ultrapure water) | solubility thermodynamic ([6]; ultrapure water, 25 °C, pH 6.24, water, thermodynamic from solid) [µg/mL] | kinetic solubility ([6]; water, preparing 5 mg/mL requires shaking for several minutes)
1 | COc1cc(CCNCc2ccccc2O)c(OC)cc1C#N [Compound 1, 25CN-NBOH] | 10.7 ± 0.1 | 8.4 ± 0.1 | > 99 | ~10 | approximately 90% | 87 | 400 (≈ 1280 µM) | 29 | 20 | -0.76 ± 0.01 | 1.59 ± 0.02 | 2.58 ± 0.01 | excellent BBB permeability |  |  |  |  | 
2 | COc1cc(CCNCc2ccccc2O)c(OC)cc1C#N [1·HCl, 25CN-NBOH·HCl] |  |  |  |  |  |  |  |  |  |  |  |  |  | stable | could not detect additional species; also recorded: stable | 6.24 ± 0.01 and 6.24 | 8500 ± 300 | low
